Key:
[1] = system: HIV-1 latency establishment (HIVGKO reporter virus) in K562 cells; experiment: HIVGKO dual-color reporter latency establishment in K562 cells (FACS); format: cell-based
Excerpt: While the effect of FOXO1 inhibitor treatment on productive infection has been tested (Trinite, B. et al. PLoS One 9, (2014)), its effect on latent HIV previously remained unknown. To test the potential of FOXO1 inhibition to affect HIV-1 latency, the new second-generation dual-color reporter virus HIVGKO (LTR-HIV-Δ-env-nefATG-csGFP-EF1α-mKO2) and the FOXO1 inhibitor AS1842856 were employed (FIG. 1, Panel A). In this system, latently-infected K562 cells express the mKO2 fluorophore, while cells containing a productive and active virus express both mKO2 and GFP fluorophores, the latter controlled by the HIV-1 LTR. […] Concomitantly, the proportion of actively infected cells increased. […] Thus, FOXO1 inhibition prevented HIV-1 latency establishment and increased the ratio between actively and latently infected cells.
Briefly, K562 cells were treated with increasing concentrations of the FOXO1 inhibitor AS1842856 just after HIVGKO infection. After 3-4 days, the percentage of latent cells and productive cells were quantified by FACS. In left panel, amount of productive or latent cells relative to the total infection rate (bars) and cell viability (dots). In the right panel, ratios of productive versus latent populations upon increasing concentrations of AS1842856 treatments. Data are represented as mean f SD of triplicate values, representative of three independent experiments. […]

[2] = system: HIV latency establishment (HIVGKO) in primary CD4+ T cells; experiment: HIVGKO latency establishment in primary resting CD4+ T cells; format: cell-based, HIV-1; conditions: increasing doses, 72 hours
[3] = system: latent HIV in CD4+ T cells from HIV-infected patients; experiment: Cell-associated HIV RNA by ddPCR in CD4+ T cells of HIV-infected patients on antiretroviral therapy, ex vivo; format: cell-based; conditions: 100 and 1000 nM, 3 days, five patients
Method: Cells were treated ex vivo with two concentrations of AS1842856 (100 and 1000 nM), prostratin (250 nM) or combinations thereof for 3 days, and HIV RNA induction was measured by digital droplet PCR (ddPCR).

SMILES: CCn1cc(C(=O)O)c(=O)c2c(N)c(F)c(NC3CCCCC3)cc21 [AS1842856, 5-amino-7-(cyclohexylamino)-1-ethyl-6-fluoro-4-oxo-1,4-dihydro-quinoline-3-carboxylic acid]
- IC50 ([1]; Human immunodeficiency virus 1, K562, read-out: IC50 observed in the cell culture system): 60 nM
- proportion of latently infected cells ([1]; K562, increasing concentrations): decreased
- productive infection and establishment of latency [2]: promoted productive infection and decreased the establishment of latency
- HIV RNA induction [3]: two-fold

Reference: US20220193209A1, “COMPOSITIONS AND METHODS FOR REACTIVATING LATENT IMMUNODEFICIENCY VIRUS AND/OR TREATING IMMUNODEFICIENCY VIRUS INFECTION” (The J. David Gladstone institutes, a testamentary trust …, priority 2019, published 2022)
